Measured values from PubChem BioAssay AID1845207 (Molecular Pharmacology Branch, DTP, NCI, 2023).
“And” between values parts separate entries of the source, which are not always exact repeats. Equal entries are not always repeated. Each block holds one molecule with its values, some of them ahead of it.

System: NCI-H1876 tumor spheroid viability
Experiment: Anticancer human tumor NCI-H1876 cell line growth inhibition;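 further: spheroids exposed to compounds for seven days before the viability read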;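 on viability, T/C: percent of DMSO vehicle control viability so 100% = vehicle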
Conditions: spheroids with HUVEC and MSC; for viability, T/C: stronger effect = lower value
Text: Multicellular complex tumor spheroid response to DNA repair inhibitors in combination with DNA-damaging drugs
This study explores the anticancer activities of DNA-damaging drugs and inhibitors of DNA damage repair, both as single agents and in combinations. Complex tumor spheroids comprised of malignant cells, endothelial cells and mesenchymal stem cells served as an in vitro model for human solid tumors. This model system incorporates physiologically relevant features and patient-derived or established malignant cell lines with clinically relevant genetic alterations from many tumor types. Twenty-six patient-derived or established malignant cell lines were evaluated representing sarcoma, melanoma, small cell lung cancer (SCLC), non-small cell lung cancer (NSCLC), as well as bladder, ovarian and pancreatic cancers. The concentration ranges selected for each drug and investigational agent were based upon clinically achievable concentrations if the clinical Cmax of the agent was known.
Compounds. The drugs and compounds olaparib (NSC753686), talazoparib (NSC767125), berzosertib (NSC777718), elimusertib (NSC800525), nedisertib (NSC802822), VX-984 (NSC792969), AZD-1390 (NSC803789), temozolomide (NSC362856), topotecan (NSC609699), trabectedin (NSC813783), staurosporine (NSC755774), and gemcitabine (NSC613327) were obtained from the National Cancer Institute (NCI) Developmental Therapeutics Program Chemical Repository. The FDA-approved anticancer drug set is available from the Developmental Therapeutics Program at https://dtp.cancer.gov/organization/dscb/obtaining/available_plates.htm. […] The stock solutions were prepared in dimethyl sulfoxide (DMSO, Sigma-Aldrich, St. Louis, MO, cat. D2650) at 400-fold the tested concentration and stored at -70 degrees C. Prior to their use, the stock solutions were diluted in fresh medium and the final DMSO concentration in the assay was 0.25% (v/v). All drugs and investigational agents were tested over a range starting from a high concentration at or near the clinical Cmax and decreasing in half-log increments. If the clinical Cmax for an agent had not been determined, the highest concentration tested was 10 microM.
Cell Lines. The patient-derived cancer cell (PDC) lines: 156681-154-R-J1-PDC, 283228-195-R-J1-PDC, 287954-098-R-J1-PDC, 292921-168-R-J2-PDC, 349418-098-R-PDC, 425362-245-T-J1-PDC, 556581-035-R-J1-PDC, and BL0293-F563-PDC were received from the NCI Patient-Derived Models Repository (PDMR, https://pdmr.cancer.gov). The established cell lines HS-SY-2 (RRID:CVCL_8719), MPNST, and SYO-1 (RRID:CVCL_7146) were obtained from the Sloan Kettering Institute. The alveolar soft parts sarcoma cell line ASPS-1 (RRID:CVCL_S738) was established at the NCI and grown from internal seed stocks. The following established cell lines were purchased from the American Type Culture Collection (ATCC, Manassas, VA): G-401 (ATCC, cat. CRL-1441, RRID:CVCL_0270), SW982 (ATCC, cat. HTB-93, RRID:CVCL_1734), VA-ES-BJ (ATCC, cat. CRL-2138, RRID:CVCL_1785), NCI-H719 (ATCC, cat. CRL-5837, RRID:CVCL_1582), NCI-H196 (ATCC, cat. CRL-5823, RRID:CVCL_1509), NCI-H841 (ATCC, cat. CRL-5845, RRID:CVCL_1595), NCI-H1618 (ATCC, cat. CRL-5879, RRID:CVCL_1480), NCI-H1876 (ATCC, cat. CRL-5902, RRID:CVCL_1503), DMS 114 (ATCC, cat. CRL-2066; RRID:CVCL_1174), NCI-H211 (ATCC, cat. CRL-5824; RRID:CVCL_1529), and SW 1271 (ATCC, cat. CRL-2177, RRID:CVCL_1716). The small cell lung cancer cell line COR-L88 was purchased from Sigma-Aldrich (cat. 92031917-1VL, RRID:CVCL_1141). The non-small cell lung cancer cell lines NCI-H226 (RRID:CVCL_1544) and NCI-H322M (RRID:CVCL_1557) were established at the NCI and grown from internal seed stocks. Pooled donor human umbilical vein endothelial cells (HUVEC, Lonza, cat. CC-2519) and human mesenchymal stem cells (hMSC, Lonza, cat. PT-2501) were purchased from Lonza (Walkersville, MD).
Cell Culture. All cells were maintained in an incubator at 37 degrees C and 5% CO2 with 95% humidity. […]

SMILES: O=C(c1cc(Cc2n[nH]c(=O)c3ccccc23)ccc1F)N1CCN(C(=O)C2CC2)CC1 + Cn1nnc2c(C(N)=O)ncn2c1=O
- IC50 (curve of first compound, second compound 1 µM): 6.95 µM
- IC50 (curve of first compound, second compound 3.16 µM): 25.4 µM
- IC50 (curve of first compound, second compound 10 µM): 9.73 µM
- IC50 (curve of first compound, second compound 31.6 µM): 2.7 µM
- IC50 (curve of first compound, second compound 100 µM): < 0.0949 µM
- viability, T/C (second compound 1 µM, first compound 0.0949 µM): 85.1%
- viability, T/C (second compound 1 µM, first compound 0.3 µM): 69.8%
- viability, T/C (second compound 1 µM, first compound 0.949 µM): 77.8%
- viability, T/C (second compound 1 µM, first compound 3 µM): 64.6%
- viability, T/C (second compound 1 µM, first compound 9.49 µM): 32.2%
- viability, T/C (second compound 1 µM, first compound 30 µM): 56.9%
- viability, T/C (second compound 3.16 µM, first compound 0.0949 µM): 89.8%
- viability, T/C (second compound 3.16 µM, first compound 0.3 µM): 82.4%
- viability, T/C (second compound 3.16 µM, first compound 0.949 µM): 72.7%
- viability, T/C (second compound 3.16 µM, first compound 3 µM): 61.5%
- viability, T/C (second compound 3.16 µM, first compound 9.49 µM): 65.2%
- viability, T/C (second compound 3.16 µM, first compound 30 µM): 45.1%
- viability, T/C (second compound 10 µM, first compound 0.0949 µM): 79.2%
- viability, T/C (second compound 10 µM, first compound 0.3 µM): 70.3%
- viability, T/C (second compound 10 µM, first compound 0.949 µM): 64.6%
- viability, T/C (second compound 10 µM, first compound 3 µM): 53.7%
- viability, T/C (second compound 10 µM, first compound 9.49 µM): 60%
- viability, T/C (second compound 10 µM, first compound 30 µM): 17.2%
- viability, T/C (second compound 31.6 µM, first compound 0.0949 µM): 75.3%
- viability, T/C (second compound 31.6 µM, first compound 0.3 µM): 69.4%
- viability, T/C (second compound 31.6 µM, first compound 0.949 µM): 53.3%
- viability, T/C (second compound 31.6 µM, first compound 3 µM): 55.7%
- viability, T/C (second compound 31.6 µM, first compound 9.49 µM): 32.9%
- viability, T/C (second compound 31.6 µM, first compound 30 µM): 15.8%
- viability, T/C (second compound 100 µM, first compound 0.0949 µM): 54.7%
- viability, T/C (second compound 100 µM, first compound 0.3 µM): 31.5%
- viability, T/C (second compound 100 µM, first compound 0.949 µM): 29.6%
- viability, T/C (second compound 100 µM, first compound 3 µM): 62.5%
- viability, T/C (second compound 100 µM, first compound 9.49 µM): 18.8%
- viability, T/C (second compound 100 µM, first compound 30 µM): 15.7%

SMILES: O=C(c1cc(Cc2n[nH]c(=O)c3ccccc23)ccc1F)N1CCN(C(=O)C2CC2)CC1
- viability, T/C (compound 0.0949 µM): 87% and 103% and 107%
- viability, T/C (compound 0.3 µM): 76% and 89.7% and 106%
- viability, T/C (compound 0.949 µM): 84.4% and 76.2% and 100%
- viability, T/C (compound 3 µM): 72.1% and 55.2% and 76.5%
- viability, T/C (compound 9.49 µM): 64% and 33.9% and 18.2%
- viability, T/C (compound 30 µM): 66.7% and 19.1% and 12.6%
- IC50 (curve of compound): > 30 µM and 3.96 µM and 5.07 µM

- IC50 (compound alone, run of 11/07/2019): 7.08 nM [middle of 5 runs]
- IC50 (compound alone, run of 12/16/2019): 5.61 nM [middle of 5 runs]
SMILES: CC[C@@]1(O)C(=O)OCc2c1cc1n(c2=O)Cc2cc3c(CN(C)C)c(O)ccc3nc2-1
- viability, T/C (compound 0.003 µM): 84.5% [middle of 10 runs]
- viability, T/C (compound 0.03 µM): 12.1% [middle of 10 runs]
- viability, T/C (compound 0.0949 µM): 8% [middle of 10 runs]
- viability, T/C (compound 0.3 µM): 3.52% [middle of 10 runs]
